Columns and labels:
[1] = Water solubility at 37 degree C.; format: ADME; conditions: buffer
[2] = system: B16; experiment: Compound was tested for cytotoxic activity against […] melanoma cells; format: functional, cell-based, Mus musculus
[3] = Compound was tested for growth Inhibition against human TIG-1-20 fibroblast cells; format: functional, cell-based
[4] = system: B16; experiment: Compound was tested for growth Inhibition against B16 melanoma cells; format: functional, cell-based, Mus musculus

Compound | S [1] | IC50 [2] | IC50 [3] | IC50 [4]
CC1CN1CC(O)CC1CC1COC(COC(CO)CO)COC(CO)CO (centres undefined) | > 0.01 M,mol dme-3 | 0.00005 M,mol dme-3 | 0.000068 M,mol dme-3 | 
CC1CN1CC(O)CC1CC1COC(CO)CO (centres undefined) | 0.0081 M,mol dme-3 | 0.000029 M,mol dme-3 | 0.000041 M,mol dme-3 | 
CC1CN1CC(O)CC1CC1 (centres undefined) | < 0.001 M,mol dme-3 |  | 0.000018 M,mol dme-3 | 5.4e-6 M,mol dme-3

Source: ChEMBL document CHEMBL1152069, “Synthesis and biological properties of carboranylaziridines bearing cascade polyols” (Bioorg Med Chem Lett, 1996)
